pIC50: −log10 of the molar value. Some results are limits rather than exact numbers.

These results are taken from patent publication US9776979B2, “EBI2 modulators” (Sanford-Burnham Medical Research Institute, priority 2013, dated 2017).

In this test the target is EBI2 (Homo sapiens, UniProt P32249). Nature of the test: Cell-based luminescent assay (EBI2 modulation). As to conditions: cell-based luminescence; 7a,25-OHC final assay concentration 80 nM; 60 minutes incubation; read-out: IC50. The gist of the method: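 Cells plated overnight at 37° C, then exposed to compound at 4-5 uM final with 80 nM 7a,25-OHC agonist for 60 min at 37° C. Luminescence read after 60 min detection at 25° C in the dark; values normalized to neutral and stimulator controls and plate-pattern corrected.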
Sequence of EBI2 (P32249 whole entry): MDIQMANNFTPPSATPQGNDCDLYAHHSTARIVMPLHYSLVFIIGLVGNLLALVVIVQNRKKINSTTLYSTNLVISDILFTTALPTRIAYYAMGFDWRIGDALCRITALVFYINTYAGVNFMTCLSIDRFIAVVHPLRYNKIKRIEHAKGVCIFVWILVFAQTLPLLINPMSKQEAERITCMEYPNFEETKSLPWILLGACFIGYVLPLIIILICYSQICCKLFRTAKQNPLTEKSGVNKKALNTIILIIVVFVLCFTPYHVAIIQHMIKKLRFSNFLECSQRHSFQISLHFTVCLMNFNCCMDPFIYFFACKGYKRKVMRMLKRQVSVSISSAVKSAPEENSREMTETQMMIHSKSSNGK
For `O=C(/C=C/c1ccc(Br)cc1)N1CCN(Cc2ccc(Cl)cc2F)CC1` [Compound C130, (2E)-3-(4-bromophenyl)-1-{4-[(4-chloro-2-fluorophenyl)methyl]piperazinyl}prop-2-en-1-one], the pIC50 was more than 7.00. As to `O=C(/C=C/c1ccc(Br)cc1)N1CCN(Cc2ccc(F)cc2C(F)(F)F)CC1` [Compound C131, (2E)-3-(4-bromophenyl)-1-(4-{[4-fluoro-2-(trifluoromethyl)phenyl]methyl}piperazinyl)prop-2-en-1-one], the pIC50 is more than 7.00. Consider `O=C(C#Cc1cccc(Cl)c1Cl)N1CCN(C(=O)c2ccc(C(F)(F)F)cc2)CC1` [Compound C132, 3-(2,3-dichlorophenyl)-1-(4-{[4-(trifluoromethyl)phenyl]carbonyl}piperazinyl)prop-2-yn-1-one], for which the pIC50 was more than 7.00. On to `O=C(c1ccc(C(F)(F)F)cc1)N1CCN(C(=O)c2cc3cc(C(F)(F)F)ccc3[nH]2)CC1` [Compound C133, 5-(trifluoromethyl)indol-2-yl 4-{[4-(trifluoromethyl)phenyl]carbonyl}piperazinyl ketone], for which the pIC50 was more than 7.00. With `O=C(c1ccc(F)cc1)N1CCN(C(=O)c2cc3cc(Br)ccc3[nH]2)CC1` [Compound C135, 5-bromoindol-2-yl 4-[(4-fluorophenyl)carbonyl]piperazinyl ketone] the figure was more than 7.00. With `O=C(NCC1CCN(C(=O)/C=C/c2ccc(Br)cc2)CC1)c1ccc(F)cc1` [Compound C136, N-({1-[(2E)-3-(4-bromophenyl)prop-2-enoyl](4-piperidyl)}methyl)(4-fluorophenyl)carboxamide] the figure was more than 7.00. Turning to `O=C(C#Cc1ccc(C(F)(F)F)cc1)N1CCN(Cc2ccc(Cl)cc2)CC1` [Compound C137, 1-{4-[(4-chlorophenyl)methyl]piperazinyl}-3-[4-(trifluoromethyl)phenyl]prop-2-yn-1-one], the negative logarithm of the IC50 (pIC50) was more than 7.00. For `O=C(/C=C/c1ccc(F)cc1)N1CCN(S(=O)(=O)c2cccc(Cl)c2)CC1` [Compound C138, (2E)-1-{4-[(3-chlorophenyl)sulfonyl]piperazinyl}-3-(4-fluorophenyl)prop-2-en-1-one], the negative logarithm of the IC50 (pIC50) was more than 7.00. For `O=C(C#Cc1ccccc1)N1CCN(C(c2ccccc2)c2ccccc2)CC1` [Compound C139, 1-[4-(diphenylmethyl)piperazinyl]-3-phenylprop-2-yn-1-one], the pIC50 was more than 7.00. With `O=C(c1ccc(C(F)(F)F)cc1)N1CCN(C(=O)c2cc3cc(Br)ccc3[nH]2)CC1` [Compound C140, 5-bromoindol-2-yl 4-{[4-(trifluoromethyl)phenyl]carbonyl}piperazinyl ketone] the figure was more than 7.00.

With `O=C(C#Cc1cccc(Cl)c1Cl)N1CCN(Cc2ccc(F)cc2C(F)(F)F)CC1` [Compound C141, 3-(2,3-dichlorophenyl)-1-(4-{[4-fluoro-2-(trifluoromethyl)phenyl]methyl}piperazinyl)prop-2-yn-1-one], the pIC50 was more than 7.00. Consider `O=C(c1cc2cc(C(F)(F)F)ccc2s1)N1CCN(C(c2ccccc2)c2ccccc2)CC1` [Compound C142, 4-(diphenylmethyl)piperazinyl 5-(trifluoromethyl)benzo[b]thiophen-2-yl ketone], for which the pIC50 was more than 7.00.

As for `CC(C)(C)c1ccc(CN2CCN(C(=O)/C=C/c3ccc(Br)cc3)CC2)cc1` [Compound C144, (2E)-1-(4-{[4-(tert-butyl)phenyl]methyl}piperazinyl)-3-(4-bromophenyl)prop-2-en-1-one], the pIC50 is more than 7.00.

Turning to `CCC(=O)N1CCN(C(=O)/C=C/c2ccc(Br)cc2)CC1` [Compound C145, (2E)-3-(4-bromophenyl)-1-(4-propanoylpiperazinyl)prop-2-en-1-one], the negative-log IC50 (pIC50) is more than 7.00.

With `COc1ccc(/C=C/C(=O)N2CCN(S(=O)(=O)c3ccc(Br)cc3)CC2)cc1` [Compound C146, (2E)-1-{4-[(4-bromophenyl)sulfonyl]piperazinyl}-3-(4-methoxyphenyl)prop-2-en-1-one], the pIC50 is more than 7.00. Take `O=C(/C=C/c1cc(F)c(F)c(F)c1)N1CCN(C(c2ccccc2)c2ccccc2)CC1` [Compound C147]: the pIC50 is more than 7.00. The value for `O=C(C#Cc1ccc(Br)cc1)N1CCN(C(=O)c2ccc(-c3nnn[nH]3)cc2)CC1` [Compound C149, 3-(4-bromophenyl)-1-{4-[(4-(5H-1,2,3,4-tetraazol-5-yl)phenyl)carbonyl]piperazinyl}prop-2-yn-1-one] was more than 7.00. As for `COc1ccc(C(=O)N2CCN(C(=O)c3cc4ccc(Cl)cc4[nH]3)CC2)cc1` [Compound C151, 6-chloroindol-2-yl 4-[(4-methoxyphenyl)carbonyl]piperazinyl ketone], the negative-log IC50 (pIC50) is more than 7.00. For `O=C(/C=C/c1ccc(Br)cc1)N1CCN(C(=O)c2ccc(-c3nnn[nH]3)cc2)CC1` [Compound C152, (2E)-3-(4-bromophenyl)-1-{4-[(4-(1H-1,2,3,4-tetraazol-5-yl)phenyl)carbonyl]piperazinyl}prop-2-en-1-one], the pIC50 was more than 7.00. On to `O=C(/C=C/c1ccc(Br)cc1)N1CCN(C(=O)c2ccc(B(O)O)cc2)CC1` [Compound C153, (E)-(4-(4-(3-(4-bromophenyl)acryloyl)piperazine-1-carbonyl)phenyl)boronic acid], for which the negative-log IC50 (pIC50) is more than 7.00.

As for `O=C(C=C(Br)c1ccc(Br)cc1)N1CCN(C(c2ccccc2)c2ccccc2)CC1` [Compound C155, 1-[4-(diphenylmethyl)piperazinyl]-3-bromo-3-(4-bromophenyl)prop-2-en-1-one], the negative logarithm of the IC50 (pIC50) is more than 7.00. Consider `O=C(c1cc2cc(F)ccc2s1)N1CCN(C(c2ccccc2)c2ccccc2)CC1` [Compound C156, 4-(diphenylmethyl)piperazinyl 5-fluorobenzo[b]thiophen-2-yl ketone], for which the pIC50 is more than 7.00. As for `O=C(C#Cc1cccc(Cl)c1)N1CCN(C(=O)c2ccc(F)cc2C(F)(F)F)CC1` [Compound C157, 3-(3-chlorophenyl)-1-(4-{[4-fluoro-2-(trifluoromethyl)phenyl]carbonyl}piperazinyl)prop-2-yn-1-one], the negative-log IC50 (pIC50) is more than 7.00. With `Cc1ccc2[nH]c(C(=S)N3CCN(C(c4ccccc4)c4ccccc4)CC3)cc2c1` [Compound C158, [4-(diphenylmethyl)piperazinyl](5-methylindol-2-yl)methane-1-thione], the negative logarithm of the IC50 (pIC50) is more than 7.00. Turning to `O=C(C#Cc1ccc(F)cc1)N1CCN(C(c2ccccc2)c2ccccc2)CC1` [Compound C159, 1-[4-(diphenylmethyl)piperazinyl]-3-(4-fluorophenyl)prop-2-yn-1-one], the negative-log IC50 (pIC50) was more than 7.00. On to `O=C(C#Cc1ccc(Br)cc1)N1CCN(C(=O)c2ccc(B(O)O)cc2)CC1` [Compound C160, 4-(4-(3-(4-bromophenyl)propioloyl)piperazine-1-carbonyl)phenylboronic acid], for which the negative-log IC50 (pIC50) is more than 7.00. With `O=C(/C=C/c1ccccc1)N1CCN(Cc2ccc([N+](=O)[O-])cc2)CC1` [Compound C161, (2E)-1-{4-[(4-nitrophenyl)methyl]piperazinyl}-3-phenylprop-2-en-1-one] the figure was more than 7.00.

With `Cc1ccc2[nH]c(C(=O)NC3CCN(C(c4ccccc4)c4ccccc4)CC3)cc2c1` [Compound C162, N-[1-(diphenylmethyl)(4-piperidyl)](5-methylindol-2-yl)carboxamide], the pIC50 was 5.30 to 6.30. Regarding `O=C(c1cc[nH]c1)N1CCN(C(=O)c2cc3cc(Cl)ccc3[nH]2)CC1` [Compound C163, 5-chloroindol-2-yl 4-(pyrrol-3-ylcarbonyl)piperazinyl ketone], the pIC50 is 5.30 to 6.30. On to `O=C(c1ccc(Br)cc1)N1CCN(Cc2ccc(F)cc2C(F)(F)F)CC1` [Compound C164, 4-bromophenyl 4-{[4-fluoro-2-(trifluoromethyl)phenyl]methyl}piperazinyl ketone], for which the negative logarithm of the IC50 (pIC50) is 5.30 to 6.30. For the compound `O=C(c1ccc(Br)cc1)N1CCN(Cc2ccc(F)cc2)CC1` [Compound C165, 4-bromophenyl 4-[(4-fluorophenyl)methyl]piperazinyl ketone], the pIC50 was 5.30 to 6.30. In the case of `O=C(C#Cc1ccc(F)cc1F)N1CCN(C(=O)c2ccc(C(F)(F)F)cc2)CC1` [Compound C166, 3-(2,4-difluorophenyl)-1-(4-{[4-(trifluoromethyl)phenyl]carbonyl}piperazinyl)prop-2-yn-1-one], the negative logarithm of the IC50 (pIC50) was 5.30 to 6.30.

Turning to `O=C(C=Cc1ccc2c(c1)OCO2)N1CCN(Cc2ccc(C(F)(F)F)cc2)CC1` [Compound C167, 3-(2H-benzo[3,4-d]1,3-dioxolan-5-yl)-1-(4-{[4-(trifluoromethyl)phenyl]methyl}piperazinyl)prop-2-en-1-one], the negative-log IC50 (pIC50) was 5.30 to 6.30. For `O=C(c1nc2ccccc2s1)N1CCN(C(c2ccccc2)c2ccccc2)CC1` [Compound C168, benzothiazol-2-yl 4-(diphenylmethyl)piperazinyl ketone], the pIC50 was 5.30 to 6.30. Take `O=C(C#Cc1ccccc1C(F)(F)F)N1CCN(C(=O)c2ccc(C(F)(F)F)cc2)CC1` [Compound C169, 3-[2-(trifluoromethyl)phenyl]-1-(4-{[4-(trifluoromethyl)phenyl]carbonyl}piperazinyl)prop-2-yn-1-one]: the pIC50 was 5.30 to 6.30. Turning to `O=C(C#Cc1ccc(Cl)c(Cl)c1)N1CCN(Cc2ccc(C(F)(F)F)cc2)CC1` [Compound C171, 3-(3,4-dichlorophenyl)-1-(4-{[4-(trifluoromethyl)phenyl]methyl}piperazinyl)prop-2-yn-1-one], the pIC50 was 5.30 to 6.30. As to `Cn1c(C(=O)N2CCN(C(c3ccccc3)c3ccccc3)CC2)cc2ccsc21` [Compound C173, 4-(diphenylmethyl)piperazinyl 6-methylthiopheno[3,2-d]pyrrol-5-yl ketone], the pIC50 is 5.30 to 6.30. As for `O=C(/C=C/c1cc(Br)ccc1F)N1CCN(S(=O)(=O)c2ccc(Br)cc2)CC1` [Compound C174, (2E)-3-(5-bromo-2-fluorophenyl)-1-{4-[(4-bromophenyl)sulfonyl]piperazinyl}prop-2-en-1-one], the negative logarithm of the IC50 (pIC50) was 5.30 to 6.30. In the case of `O=C(c1cnc2ccccc2c1)N1CCN(Cc2ccc(Cl)cc2)CC1` [Compound C175, 4-[(4-chlorophenyl)methyl]piperazinyl 3-quinolyl ketone], the negative-log IC50 (pIC50) was 5.30 to 6.30.

In general, pIC50 refers to −log10 of the IC50, conventionally taken in molar units.
